Laboratory results: patent publication US10822535B2, “Modified acid compositions as alternatives to conventional acids in the oil and gas industry” (Fluid Energy Group Ltd., priority 2017, dated 2020)
≈ marks a conversion by molar mass, not a printed value. Like-named read-outs stand apart in the source and are kept apart here.

Key:
Cyprinodon variegatus = assay: Marine fish 96 h limit test (OSPAR); assay type: in vivo; details: 96 h exposure at 199.7 mg/l (Water Accommodated Fraction)
Protocol: This study was commissioned to determine the aquatic (96 h limit test) toxicity of the composition of monoethanolamine to the marine fish Cyprinodon variegatus.
There were no interferences in this test. Test conditions of exposure were within formal and informal limits of acceptability except for the exception noted below. There were ten fish used in both the test and control tanks, with no control mortality observed.
The test concentration was derived from the test material EC/LC50 value between the most sensitive acute toxicity test species Skeletonema sp. and A. tonsa.

Corophium volutator = assay: Sediment bioassay using an amphipod (OSPARCOM 2006 Part A); assay type: in vivo; details: sediment phase, via dried sediment, nominal concentrations
Protocol: OSPARCOM Guidelines (2006) Part A. A Sediment Bioassay Using an Amphipod Corophium sp
This study was commissioned to determine the sediment phase toxicity of the composition of monoethanolamine to the intertidal amphipod Corophium volutator. […] The result is based on nominal concentrations and was calculated by Linear Interpolation within the CETIS suite of statistical analysis.

[1] = Aerobic degradability in seawater (OECD 306)
Protocol: This study was commissioned to determine the aerobic degradability of the composition of monoethanolamine in seawater. […] The ThODNO3 value was determined from the chemical formula of the compound tested.
The OECD 306 guideline states the test material can be considered to be inhibitory to bacteria (at the concentration used) if the BOD of the mixture of reference and test materials is less than the sum of the BOD of the separate solutions of the two substances.

Skeletonema sp. = assay: Marine algal growth inhibition test (ISO 10253); assay type: cell-based; details: 72 h, WAFs, nominal concentrations, read-out: 72 h EC(r)50
Text: ISO 10253 (2016) Water Quality—Marine Algal Growth Inhibition Test with Skeletonema Sp. This study was commissioned to determine the aquatic phase toxicity of the composition of monoethanolamine to the marine unicellular algae Skeletonema sp. […] It is the results from this test that has been reported.

[2] = Acute lethal toxicity to marine copepods (ISO 14669); details: Acartia tonsa (marine copepod), in vivo, other: aquatic phase (waterborne exposure), Water Accommodated Fraction, nominal concentrations
Protocol: A series of test were carried out to assess the environmental impact of monoethanoamine. A stock solution of 98-99% pure monoethanolamine was sent to be tested. The solution was diluted where necessary.
Determination of Acute Lethal Toxicity to Marine Copepods (Copepoda; Crustacea) (ISO 14669 (1999) Water Quality)
This study was commissioned to determine the aquatic phase toxicity of monoethanolamine to the marine copepod Acartia tonsa. The A. tonsa toxicity LC50 test was conducted in accordance with the study plan except for the following deviation and interferences but met all other relevant validity criteria. In the definitive test the temperature of the dilution water was below acceptable limits by a maximum of 0.7° C., the pH was below acceptable limits by a maximum of 0.01 units. These deviations were not expected to have an impact on the test as there was no control mortalities.

| SMILES | mortality (Cyprinodon variegatus) | 10 day LC50 (Corophium volutator) | biodegradation [1] [%] | percentage inhibition of bacteria ([1]; in 28 days) [%] | EC50 (Skeletonema sp.; definitive test) [µg/mL] | EC50 (Skeletonema sp.; range-finding test) [µg/mL] | LC50 at 48 h ([2]; 48 h LC50, definitive test, seawater) [µg/mL] | LC50 at 48 h ([2]; 48 h LC50, range-finding test) [µg/mL] | degradation of reference material ([1]; first 14 days, seawater) |
| --- | --- | --- | --- | --- | --- | --- | --- | --- | --- |
| NCCO [monoethanolamine] | no mortalities | 6,660 mg/kg | 71 | 12 | 200 (≈ 3.27 mM) | 509 (≈ 8.33 mM) | 434 (≈ 7.1 mM) | 550 (≈ 9 mM) | – |
| O=C([O-])c1ccccc1.[Na+] [sodium benzoate, reference compound] | – | – | – | – | – | – | – | – | more than 60% |
